The source of these data is PubChem BioAssay (NCI).

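These data come from cells grown in 96-well plates and exposed to compound for 48 hours at five concentrations. The concentration for 50% growth inhibition is given as GI50. At the TGI there is no net growth.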

Among the test systems are TK-10 renal; K-562 leukemia; LOX IMVI melanoma; NCI/ADR-RES ovarian; SK-OV-3 ovarian; SN12C renal; KM12 colon; MALME-3M melanoma; SF-539 CNS; UACC-257 melanoma.
Common to all, as to assay: inhibition of tumour cell growth, NCI panel, 48 h

As for `O=C(N/N=C/c1ccc(O)cc1O)c1cccc(Nc2ccnc(C(F)(F)F)c2)c1`, the GI50 in the assay on TK-10 renal was 2980 nM; with K-562 leukemia, 587 nM; with LOX IMVI melanoma, 501 nM; with NCI/ADR-RES ovarian, 9.05 µM; with SK-OV-3 ovarian it was 1.22 µM; with SN12C renal it was 2010 nM. Besides, the GI50 was 2730 nM with KM12 colon, 1320 nM in the assay with MALME-3M melanoma, 967 nM with SF-539 CNS and 3.06 µM with UACC-257 melanoma. Moreover, the TGI in the assay with TK-10 renal was 37.3 µM; with K-562 leukemia, 19.4 µM; in the assay with LOX IMVI melanoma, 12.5 µM; in the assay on NCI/ADR-RES ovarian, over 90.1 µM; in the assay with SK-OV-3 ovarian, 18.3 µM; with SN12C renal, 26.1 µM. Moreover, the TGI in the assay on KM12 colon came out at 16.2 µM; in the assay with MALME-3M melanoma it was 11.5 µM; with SF-539 CNS, 7.74 µM; in the assay with UACC-257 melanoma it was 12.3 µM.

Turning to `[N-]=[N+]=NCCCn1c2c(c3ccc([N+](=O)[O-])cc3c1=O)C(=O)c1cc(F)ccc1-2`, the GI50 is 16700 nM with TK-10 renal; 1250 nM with K-562 leukemia; 343 nM in the assay with LOX IMVI melanoma; 1.46 µM in the assay on NCI/ADR-RES ovarian; 2.82 µM in the assay with SK-OV-3 ovarian; 703 nM in the assay on SN12C renal. In addition, the GI50 was 2130 nM with KM12 colon, 3460 nM in the assay with MALME-3M melanoma, 2380 nM in the assay with SF-539 CNS and 10.3 µM in the assay with UACC-257 melanoma. Besides, the TGI is over 100 µM in the assay on TK-10 renal; over 100 µM in the assay on K-562 leukemia; 1.86 µM with LOX IMVI melanoma; over 49 µM in the assay with NCI/ADR-RES ovarian; 19.3 µM in the assay on SK-OV-3 ovarian; over 26.2 µM in the assay with KM12 colon. Besides, the TGI in the assay on MALME-3M melanoma was 19.8 µM; in the assay on SF-539 CNS, over 100 µM; in the assay on UACC-257 melanoma, over 100 µM.

In the case of `CC(=O)O[C@H](C[C@H](C(C)C)N(C)C(=O)[C@@H](NC(=O)[C@H]1CCCN1C)C(C)C)c1nc(C(=O)N[C@@H](Cc2ccccc2)C[C@H](C)C(=O)O)c(C)s1`, the GI50 with TK-10 renal is over 16700 nM; in the assay with K-562 leukemia it was under 1.67 nM; in the assay on LOX IMVI melanoma, under 1.67 nM; in the assay with NCI/ADR-RES ovarian, 0.102 µM; with SK-OV-3 ovarian it was 0.00203 µM; in the assay with SN12C renal it was under 1.67 nM. In addition, the GI50 in the assay with KM12 colon is under 1.67 nM; in the assay with SF-539 CNS it was under 1.67 nM; in the assay on UACC-257 melanoma, over 16.7 µM. In addition, the TGI with TK-10 renal, in the assay on K-562 leukemia, with LOX IMVI melanoma, in the assay with NCI/ADR-RES ovarian, in the assay on SK-OV-3 ovarian and in the assay on SN12C renal was over 16.7 µM throughout. Further, the TGI is over 16.7 µM with KM12 colon, 0.0256 µM with SF-539 CNS and over 16.7 µM in the assay with UACC-257 melanoma.

In the case of `COc1cc(-c2csc(NC(=O)Nc3ccc(C(F)(F)F)cc3)n2)cc(OC)c1OC`, the GI50 is 3040 nM in the assay on K-562 leukemia; 1590 nM in the assay with LOX IMVI melanoma; 2.12 µM with NCI/ADR-RES ovarian; 2.68 µM in the assay with SK-OV-3 ovarian; 2620 nM with SN12C renal; 2090 nM in the assay with KM12 colon. For the same molecule, the GI50 in the assay with MALME-3M melanoma was 1850 nM; in the assay on SF-539 CNS, 2280 nM; in the assay on UACC-257 melanoma it was 2.47 µM. The TGI was over 100 µM with K-562 leukemia; 3.15 µM in the assay on LOX IMVI melanoma; 6.94 µM with NCI/ADR-RES ovarian; 8.33 µM with SK-OV-3 ovarian; 8.89 µM with SN12C renal; 7.48 µM in the assay on KM12 colon. For the same molecule, the TGI in the assay with MALME-3M melanoma amounted to 4.94 µM; in the assay with SF-539 CNS, 6.68 µM; in the assay on UACC-257 melanoma, 5.91 µM.

For the molecule `CCOC(=O)C#Cc1c(C(=O)OCC)nnn1Cc1ccc([N+](=O)[O-])cc1`, the GI50 in the assay on TK-10 renal is 1870 nM; in the assay on K-562 leukemia, 1320 nM; in the assay with LOX IMVI melanoma it was 949 nM; with NCI/ADR-RES ovarian it was 5.5 µM; in the assay on SK-OV-3 ovarian, 21.9 µM; in the assay on SN12C renal it was 3330 nM. For the same molecule, the GI50 with KM12 colon is 10200 nM; in the assay on MALME-3M melanoma, 1990 nM; in the assay on UACC-257 melanoma it was 2.71 µM. Further, the TGI with TK-10 renal worked out at 3.33 µM; in the assay with K-562 leukemia it was 10.7 µM; in the assay on LOX IMVI melanoma, 2.29 µM; with NCI/ADR-RES ovarian, 21.1 µM; in the assay on SK-OV-3 ovarian, 51.1 µM; in the assay with SN12C renal, 12.1 µM. Also, the figures for the TGI with KM12 colon, with MALME-3M melanoma and in the assay on UACC-257 melanoma were 24.1 µM, 4.29 µM and 7.08 µM, respectively.

As to `CC1(C)NCCC[C@]2(C)[C@H]3CC[C@@H]4[C@H]5[C@H](C(=O)/C=C/c6ccccn6)CC[C@]5(CO)CC[C@@]4(C)[C@]3(C)CC[C@@H]12`, the GI50 in the assay on TK-10 renal was 4800 nM; in the assay with K-562 leukemia, 2190 nM; with NCI/ADR-RES ovarian, 3.43 µM; with SK-OV-3 ovarian, 12.9 µM; with SN12C renal, 3510 nM; in the assay with KM12 colon, 2070 nM. The GI50 in the assay on MALME-3M melanoma was 1770 nM; with SF-539 CNS, 1780 nM; with UACC-257 melanoma, 3.99 µM. The TGI is 24.8 µM in the assay with TK-10 renal; over 100 µM in the assay on K-562 leukemia; 13.9 µM in the assay on NCI/ADR-RES ovarian; 30 µM in the assay with SK-OV-3 ovarian; 16.8 µM with SN12C renal; 4.27 µM in the assay on KM12 colon. Besides, the results for the TGI in the assay on MALME-3M melanoma, in the assay on SF-539 CNS and in the assay on UACC-257 melanoma were 3.51 µM, 3.6 µM and 19 µM, respectively.

As to `CCCCCCCCCNC(=O)/C=C/c1ccc(O)c(O)c1`, the GI50 in the assay on TK-10 renal was 11100 nM; with LOX IMVI melanoma it was 11000 nM; with NCI/ADR-RES ovarian it was 15.4 µM; with SK-OV-3 ovarian, 19.4 µM; in the assay with SN12C renal, 10800 nM; in the assay on KM12 colon, 9020 nM. Besides, the GI50 in the assay with MALME-3M melanoma is 13200 nM; in the assay with SF-539 CNS, 15100 nM; in the assay with UACC-257 melanoma it was 29.5 µM. Besides, the TGI in the assay with TK-10 renal was determined as 39.7 µM; in the assay on LOX IMVI melanoma, 29 µM; in the assay on NCI/ADR-RES ovarian it was 46.8 µM; in the assay with SK-OV-3 ovarian it was 49.5 µM; in the assay with SN12C renal, 23.1 µM; with KM12 colon, 23.6 µM. The figures for the TGI in the assay on MALME-3M melanoma, in the assay with SF-539 CNS and with UACC-257 melanoma were 31.4 µM, 38.2 µM and 69.6 µM, respectively.

On to `Nc1ccc(-c2cccs2)cc1NC(=O)c1ccc(CCCC(=O)Nc2ccc(C3CC3N)cc2)cc1` (centres undefined), for which the GI50 in the assay on TK-10 renal is 2440 nM; with NCI/ADR-RES ovarian, over 100 µM; in the assay with SK-OV-3 ovarian, 4.37 µM; with KM12 colon, 3430 nM; in the assay on MALME-3M melanoma it was 1060 nM; in the assay on SF-539 CNS, 2420 nM. The TGI with TK-10 renal is 39.2 µM; with NCI/ADR-RES ovarian it was over 100 µM; in the assay on SK-OV-3 ovarian, 37.1 µM; in the assay with KM12 colon it was over 100 µM; in the assay with MALME-3M melanoma, 3.77 µM; in the assay on SF-539 CNS it was 7.94 µM.

Regarding `Cc1ccc(C(=O)/C(=C\c2ccc([N+](=O)[O-])cc2)S(=O)Cc2ccc(Cl)cc2)cc1` (centres undefined), the GI50 in the assay with TK-10 renal is 1860 nM; in the assay on LOX IMVI melanoma, 1550 nM; with NCI/ADR-RES ovarian, 2.72 µM; with SK-OV-3 ovarian, 9.55 µM; in the assay on SN12C renal, 1760 nM; in the assay with KM12 colon it was 2330 nM. Moreover, the GI50 is 1740 nM in the assay with MALME-3M melanoma, 1850 nM in the assay on SF-539 CNS and 1.89 µM in the assay on UACC-257 melanoma. The TGI in the assay on TK-10 renal was found to be 3.89 µM; in the assay on LOX IMVI melanoma it was 3.04 µM; in the assay with NCI/ADR-RES ovarian, 7.97 µM; in the assay on SK-OV-3 ovarian, 21.3 µM; in the assay with SN12C renal, 3.64 µM; in the assay on KM12 colon, 6.2 µM. The TGI came to 3.64 µM in the assay with MALME-3M melanoma, 3.37 µM in the assay on SF-539 CNS and 3.89 µM in the assay with UACC-257 melanoma.

`O=C1c2ccccc2-c2c1c1c(O)cccc1n2Cc1ccccn1`: the GI50 is 28900 nM in the assay with TK-10 renal; 18300 nM in the assay with K-562 leukemia; 35500 nM with LOX IMVI melanoma; 43.2 µM in the assay with NCI/ADR-RES ovarian; 89 µM in the assay with SK-OV-3 ovarian; 63300 nM in the assay on SN12C renal. In addition, the results for the GI50 in the assay on KM12 colon, in the assay with SF-539 CNS and with UACC-257 melanoma were over 100000 nM, 17000 nM and 23.1 µM, respectively. Further, the TGI is 93.2 µM in the assay on TK-10 renal; 79 µM in the assay on K-562 leukemia; over 100 µM in the assay on LOX IMVI melanoma; over 100 µM in the assay on NCI/ADR-RES ovarian; over 100 µM in the assay with SK-OV-3 ovarian; over 100 µM in the assay on SN12C renal. The figures for the TGI in the assay on KM12 colon, in the assay with SF-539 CNS and in the assay on UACC-257 melanoma were over 100 µM, 44.1 µM and 60.4 µM, respectively.

Take `COc1ccc2c(c1)C(=O)/C(=C/c1ccc([N+](=O)[O-])o1)O2`: the GI50 in the assay with TK-10 renal was 1050 nM; in the assay with LOX IMVI melanoma, 1400 nM; with NCI/ADR-RES ovarian, 3.11 µM; with SK-OV-3 ovarian, 5.36 µM; in the assay with SN12C renal, 1910 nM; in the assay with KM12 colon, 1650 nM. Besides, the values for the GI50 in the assay with MALME-3M melanoma, in the assay with SF-539 CNS and in the assay on UACC-257 melanoma were 1610 nM, 1760 nM and 1.61 µM, respectively. In addition, the TGI with TK-10 renal was 2.59 µM; in the assay on LOX IMVI melanoma it was 2.86 µM; with NCI/ADR-RES ovarian it was over 38.9 µM; in the assay on SK-OV-3 ovarian it was over 29.9 µM; in the assay on SN12C renal, 4.36 µM; with KM12 colon, 3.11 µM. The TGI in the assay on MALME-3M melanoma is 3.48 µM; in the assay with SF-539 CNS it was 3.91 µM; in the assay with UACC-257 melanoma, 3.45 µM.

As to `C/C(=N\NC(=S)SCc1ccccc1)c1ccccn1`, the TGI in the assay with TK-10 renal was 13.5 µM; with K-562 leukemia it was 2.95 µM; with LOX IMVI melanoma, 9.56 µM; in the assay with NCI/ADR-RES ovarian, under 0.0332 µM; in the assay with SN12C renal, 3.13 µM; in the assay with KM12 colon, 16.1 µM. Further, the results for the TGI in the assay on MALME-3M melanoma, in the assay on SF-539 CNS and in the assay with UACC-257 melanoma were 7.4 µM, 2.49 µM and 1.42 µM, respectively.
